Assay results as given in ChEMBL document CHEMBL1151581, “New dipeptide isosteres useful for the inhibition of HIV-1 protease” (Bioorg Med Chem Lett, 1994).

How the values were obtained:
CCRF-CEM = assay: Concentration required for antiviral activity using infected CEM cells; format: functional, cell-based; details: Homo sapiens
[1] = target: Human immunodeficiency virus type 1 protease (Human immunodeficiency virus 1, UniProt Q72874); assay: Concentration required for in vitro inhibition of HIV-1 protease

| SMILES | IC50 (CCRF-CEM) [nM] | IC50 [1] [nM] |
| --- | --- | --- |
| Cc1ccc(C[C@@H](O)[C@H](Cc2ccccc2)NC(=O)[C@H](CC(N)=O)NC(=O)c2ccc3ccccc3n2)c(C(=O)NC(C)(C)C)c1 | 20 |  |
| CC(C)(C)NC(=O)c1cc2ccccc2cc1C[C@@H](O)[C@H](Cc1ccccc1)NC(=O)[C@H](CC(N)=O)NC(=O)c1ccc2ccccc2n1 | 980 | 149 |
| Cc1cccc(C[C@@H](O)[C@H](Cc2ccccc2)NC(=O)[C@H](CC(N)=O)NC(=O)c2ccc3ccccc3n2)c1C(=O)NC(C)(C)C | 920 | 28 |
| Cc1ccc(C(=O)NC(C)(C)C)c(C[C@@H](O)[C@H](Cc2ccccc2)NC(=O)[C@H](CC(N)=O)NC(=O)c2ccc3ccccc3n2)c1 | 610 | 2.2 |
| CC(C)(C)NC(=O)c1c(C[C@@H](O)[C@H](Cc2ccccc2)NC(=O)[C@H](CC(N)=O)NC(=O)c2ccc3ccccc3n2)ccc2ccccc12 | 190 | 3.5 |
